# Legend:
# gram-positive bacteria = assay: anti-bacterial activity against gram-positive bacteria; type: cell-based
# gram-negative bacteria = assay: anti-bacterial activity against gram-negative bacteria; type: cell-based
# [1] = toxicity compared to other lactams having anti-microbial activity
smiles,measurement,setting,value
C=C1NC(=O)C=C1c1ccc(Cl)cc1 [4-(4-chlorophenyl)-5-methylene-pyrrol-2-one],anti-bacterial activity against gram-positive bacteria,gram-positive bacteria,shows activity
same,anti-bacterial activity against gram-negative bacteria,gram-negative bacteria,shows activity
same,toxicity,[1],unexpectedly low toxicity
C=C1NC(=O)C=C1c1ccc(C)cc1 [5-methylene-4-(p-tolyl)pyrrol-2-one],anti-bacterial activity against gram-negative bacteria,gram-negative bacteria,shows selective activity
same,toxicity,[1],unexpectedly low toxicity
